The values that follow are results of earlier work, collected in patent US20060233842A1, “Microemulsion composition for oral administration of biphenyldimethyldicarboxylate” (priority 2002, published 2006).

Where two headings read alike, the source gives them in different places.

On to `CCOCCOCCO` [transcutol, diethyleneglycol monoethylether], for which the “LD50 for acute oral toxicity” value (Gattefosse product profile) is given as 7.95 ml (specific gravity, 0.989)/kg.
Take `CC(=O)OCC(COC(C)=O)OC(C)=O` [triacetine]: the “LD50 for acute oral toxicity” value is 1.1 g/kg.
